Results on 1 substance are retold here after patent publication US10034913B2, “Anti-angiogenic peptides and uses thereof” (Health Research, Inc., priority 2011, dated 2018).

Data set [1] deals with ANG2 gene expression in HUVEC. Description: ANG2 gene expression in HUVEC, Real-time QPCR. In kind it is cell-based, human. The note with it: 10 uM, average of three experiments. As to the method: FIG. 18 is a graphical representation of data showing modulation of ANG2 gene expression in HUVEC by f-PSA, PSA-P31 and PSA-P3C. To produce the results summarized in FIG. 18, nearly confluent monolayers of HUVEC were treated with 10 uM of f-PSA, PSA-P3L or PSA-P3C; RNA extracted and reverse transcribed. The c-DNA was amplified by Real-time QPCR using specific primer. The results shown are an average of three experiments. […] Accordingly, in one embodiment, the invention provides a method for inhibiting ANG2 expression in human endothelial cells comprising contacting the cells with one or more peptides of the invention.

Data set [2] addresses T1, Mu-His-Ser-Ser-Lys-Leu-Gln—AFC (Homo sapiens, UniProt P07288).
T1 construct: The 237 amino acid protein (25-261) were used in the studies that include PSA as described herein; from tissue; host or cells: human seminal plasma (f-PSA); human prostate cancer tissue specimens (T-PSA)
Description: Enzymatic activity of isolated PSA, hydrolysis of fluorogenic substrate. It counts as biochemical. The note with it: fluorogenic substrate hydrolysis. On the procedure: In particular, enzymatic activity of PSA isolated from human seminal plasma (f-PSA) and from human prostate cancer tissue specimens (Tissue-PSA: T-PSA) was evaluated routinely using a substrate (Mu-His-Ser-Ser-Lys-Leu-Gln—AFC) (SEQ ID NO:102) (Calbiochem) that is highly specific for PSA. […] PSA in the tissue microenvironment (T-PSA) is largely free and enzymatically active. T-PSA levels are lower in advanced prostate cancer than benign prostate, and T-PSA levels correlate with prognosis in prostate cancer, as well as in breast cancer; the higher the T-PSA level, the better the prognosis.
Hydrolysis of the fluorogenic substrate was quantitated using a LS-45 Luminescence Spectrometer from Perkin Elmer) using the FL-Winlab® program. Human prostate cancer tissue specimens were obtained from the Pathology Resource Network at Roswell Park Cancer Institute under an IRB approved protocol.

Data set [3] deals with HUVEC. Description: Matrigel endothelial tube formation assay. It counts as cell-based, human. The following applies: for anti-angiogenic activity, inhibition of tube formation by HUVEC in Matrigel: 10 uM, 18 hr, FIGS. 14, 19, 20. The source says:
The 3-D model of human PSA, the amino acid sequence of the initial five candidate peptides, and their color-coded location on the exterior of the PSA protein molecule in aqueous solution, are presented in FIG. 8. Five PSA-mimetic peptides with >90% purity were acquired from GeneScript Corporation, Piscataway, N.J., and tested for anti-angiogenic activity against HUVECs in the Matrigel tube formation assay with intact PSA as the control (FIGS. 9 &10). Briefly, to perform these assays, 10^4 HUVEC cells are mixed with the PSA mimetic peptide, and, the mixture placed on top of a solidified, pre-poured Matrigel layer in a flat bottomed well of a multi-chambered plate, and the culture incubated for 16-18 hr to allow time for the endothelial cells to migrate and form tubular structures. At the conclusion of the incubation, digital images were made from the center of each culture to avoid bias, and 3-4 wells for each test condition were imaged. The images are processed under the Analyze 7.0 and “Angioquant” software packages, for imaging and quantification. The total length of tubular structures in the image is determined, and averaged over the replicate cultures. This method of quantification allows for accurate, unbiased measurement of tube lengths. Peptides having each of the peptide sequences shown in FIG. 8 are encompassed within the scope of the invention, including all modifications and substitutions to the sequences as described supra.
The experimental endpoint, measured by digital image analysis, is the total area of the image comprised of endothelial cells (tubes). […] While the reason for the decrease in the amount of anti-angiogenic activity in this figure when the concentration of the peptides is increased from 10 to 100 μM is not clear, it may be related to a dosing response observed in this case. […] FIG. 10 presents the evaluation of anti-angiogenic activity for peptides #1 and #3 relative to the level of inhibition by native PSA, averaged over multiple experiments with different parental populations of HUVEC cells. Across multiple sets of experiments, both peptides inhibited the angiogenic activity of HUVEC by 35-40% relative to native PSA.
FIG. 13 is a graphical representation of data showing anti-angiogenic activity of f-PSA, PSA-P3L, and PSA-P3C by inhibiting tube formation by HUVEC in a Matrigel assay. To produce the results summarized in FIG. 13, a 24-well tissue culture plate was coated with 200 ul/well of Matrigel and incubated for 30 min at 37 C. Approximately 80,000 HUVEC in 0.5 ml of media supplemented with f-PSA or PSA-P3L, PSA-P3C was applied on top of the Matrigel layer and cells were incubated for 18 hr at 37 C foe endothelial cell tube formation. Live cell images (4× magnification) were taken using Nikon Eclipse TE300 inverted microscope system and analyzed using Spot Advance software program. Five images were taken/well. The images were processed further using Analyze 7.0 (AnalyzeDirect, Inc., Overland Park, Kans.) and Angioquant v1.33 to obtain the average tube length for each image. Percent inhibition is expressed in relation to tube length in untreated control cells.

Data set [4] has as its system PC-3M cells. Description: Gene expression array and QPCR analysis of PC-3M cells treated with PSA. In kind it is cell-based, human. From the text:
PSA purified to homogeneity from human seminal plasma is enzymatically active, and free of contaminating hk2, and complexes with carrier proteins/chaperones (Bindukumar, B., et al., J Chromatogr B Analyt Technol Biomed Life Sci, 2004. 813(1-2): p. 113-20).

Data set [5] concerns PC-3M cells. Description: Proteomic profiling (2D-DIGE, HPLC-MS/MS) of PC-3M cells treated with PSA. In kind it is cell-based, human. The following applies: PSA treatment. From the text: This Example provides an illustration of proteomic profiling of the effect of PSA on human prostate cancer cells. In this regard, a proteomic approach was employed to identify proteins whose expression was modulated in PC-3M cells treated with PSA. […] Proteins from 26 gel spots were identified [FIG. 2]. […] Specificity of PSA modulation of differential expression of these genes in PC-3M cells was validated at the gene level by RT-QPCR [FIG. 3].

Data set [6] has as its system FLT1 gene expression in HUVEC. Description: FLT1 gene expression in HUVEC, Real-time QPCR. It counts as cell-based, human. The following applies: 10 uM, average of three experiments. On the procedure: FIG. 15 is a graphical representation of data showing modulation of FLT1 gene expression in HUVEC by f-PSA and PSA-P31. […] To obtain the data summarized in this figure, nearly confluent monolayers of HUVEC were treated with 10 uM of f-PSA or PSA-P3L; RNA extracted and reverse transcribed. The c-DNA was amplified by Real-time QPCR using specific primer. The results shown are average of three experiments.

Where [7] appears, read: PC-3M cells versus LNCaP cells treated with 10 μM PSA.

T1 sequence (P07288 25-261): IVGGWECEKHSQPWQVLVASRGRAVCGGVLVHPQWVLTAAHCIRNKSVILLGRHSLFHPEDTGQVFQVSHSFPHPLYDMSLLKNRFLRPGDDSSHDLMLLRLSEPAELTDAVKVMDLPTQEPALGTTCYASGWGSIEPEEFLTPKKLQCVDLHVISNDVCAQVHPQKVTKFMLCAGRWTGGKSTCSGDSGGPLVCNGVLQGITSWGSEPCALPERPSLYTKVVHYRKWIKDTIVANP

Regarding “f-PSA: PSA isolated from human seminal plasma, free and enzymatically active; 237 amino acid protein (residues 25-261)”, in data set [1], the ANG2 gene expression entry is given as “significantly inhibited”. For the same substance, the “enzymatic activity in the assay” value in data set [2] is reported as “demonstrated enzymatic activity”. The “anti-angiogenic activity, inhibition of tube formation by HUVEC in Matrigel” value in data set [3] is on record as “significant anti-angiogenic activity”. For the same substance, the “anti-angiogenic activity, inhibition of tube formation by HUVEC in Matrigel” value in data set [3] (listed as PSA) was “significantly inhibit”. In data set [3] (equi-molar concentrations of f-PSA and T-PSA), the “inhibitory activity on endothelial tube formation” value was “equivalent inhibitory activity”. Besides, in data set [4] (setting [7]), the “genes down-regulated (gene expression array)” value is on record as 137 and the “genes up-regulated (gene expression array)” value amounted to 136. Moreover, in data set [4] (PC-3M cells, 10 μM PSA), the “expression of IFN-γ and interferon related genes incl. 2,5 oligo-adenylated synthetase-2 (QPCR)” value is recorded as “up-regulated”; the “expression of uPA, VEGF, cysteine-rich angiogenic inducer-61, EphA2, TGF-β2 (QPCR)” value is “significantly down-regulated”. In data set [5], the “proteins significantly changed (p<0.05) in abundance” value turned out to be 41. Further, the FLT1 gene expression entry in data set [6] was “effectively inhibit”.
